{"source": "patent US20220162215A1", "about": "“COMPOSITIONS AND METHODS OF USING THE SAME FOR TREATMENT OF NEURODEGENERATIVE AND MITOCHONDRIAL DISEASE” (MITOKININ, INC., priority 2019, published 2022)", "key": {"[1]": {"test_system": "HeLa MKYP cells", "test": "Human mitophagy assay (HeLa MKYP, mtKeima FACS, FCCP/oligomycin)", "type": "cell-based", "settings": "Homo sapiens, HeLa", "experimental": "(§1) Briefly, HeLa MKYP cells were plated at 10,000 cells/well in 96 well plates along with compounds at various concentrations. Following 16 hrs of incubation, cells were treated with 1 uM FCCP/oligomycin for 6 hours, then analyzed via FACS for the presence of mitochondria in lysosomes (as determined by an emissions spectrum shift from the pH-sensitive mtKeima tag). Examples are shown in FIG. 1 through FIG. 13 below."}, "[2]": {"test": "Visual inspection of crystallization", "type": "physicochemical", "design": "key: 1: yes crystals; 0: no crystals", "settings": "Tables 5A-5D", "description": "(§2) Briefly, the Hela MKYP (Mito-Keima/YFP-Parkin) cells were seeded at 10K cells/well. EP/MTK compounds were added at seeding (cells were still in suspension). The cells were incubated with the EP/MTK compounds for 16 hours, then 1 μM FCCP/oligomycin was added for 6 hours. Prior to harvesting, cells were scored by eye under 20× magnification for the presence or absence of crystalline or aggregated compound, or round cells."}, "[3]": {"test_system": "HeLa MKYP cells", "test": "Toxicity / cell death measured by DAPI staining (take-up)", "type": "cell-based", "settings": "50 μM", "experimental": "H2O2 treatment was performed as a control for cell death as measured by DAPI staining.\nas §1, with “tag).” for “tag). Examples are shown in FIG. 1 through FIG. 13 below.”"}, "[4]": {"test_system": "Hela MKYP (Mito-Keima/YFP-Parkin) cells", "test": "Inspection of round cells", "settings": "Tables 6A-6D", "description": "as §2"}, "[5]": {"settings": "Table 3, read-out: Potency at 1 μM F/O toxin* (EC50 of mitophagy activation)"}, "[6]": {"settings": "Table 3 Supplement A, as measured in Table 3, read-out: Potency (EC50 Max Mitophagy) (μM)*"}}, "note": "Where two headings read alike, the source gives them in different places."}
{"smiles": "C[C@@H](Nc1ncnc2[nH]cnc12)c1ccccc1", "note": "[Compound 52]", "values": [{"measurement": "EC50", "setting": "[1]; [5]", "result": "> 50", "unit": "µM"}, {"measurement": "EC50", "setting": "[1]; [6]", "result": "> 25", "unit": "µM"}, {"measurement": "Visual inspection of crystallization", "setting": "[2]; 1.6 μM", "result": 0}, {"measurement": "Visual inspection of crystallization", "setting": "[2]; 3.1 μM", "result": 0}, {"measurement": "Visual inspection of crystallization", "setting": "[2]; 6.3 μM", "result": 0}, {"measurement": "Visual inspection of crystallization", "setting": "[2]; 12.5 μM", "result": 0}, {"measurement": "Visual inspection of crystallization", "setting": "[2]; 25.0 μM", "result": 0}, {"measurement": "Visual inspection of crystallization", "setting": "[2]; 50.0 μM", "result": 0}, {"measurement": "Toxicity (% positive for DAPI takeup @ 50 μM)", "setting": "[3]; Table 3", "result": 10.1, "unit": "%"}, {"measurement": "Toxicity (% positive for DAPI take-up at 50 μM)*", "setting": "[3]; Table 3 Supplement A, listed as EP-0036297", "result": 10.14, "unit": "%"}, {"measurement": "Inspection of round cells", "setting": "[4]; 1.6 μM", "result": 0}, {"measurement": "Inspection of round cells", "setting": "[4]; 3.1 μM", "result": 0}, {"measurement": "Inspection of round cells", "setting": "[4]; 6.3 μM", "result": 0}, {"measurement": "Inspection of round cells", "setting": "[4]; 12.5 μM", "result": 0}, {"measurement": "Inspection of round cells", "setting": "[4]; 25.0 μM", "result": 0}, {"measurement": "Inspection of round cells", "setting": "[4]; 50.0 μM", "result": 0}]}
{"smiles": "COc1ncc(CNc2ncnc3[nH]c(C(F)(F)F)cc23)cn1", "note": "[Compound 66]", "values": [{"measurement": "EC50", "setting": "[1]; [5]", "result": 10.6, "unit": "µM"}, {"measurement": "EC50", "setting": "[1]; [6]", "result": 10.6, "unit": "µM"}, {"measurement": "Visual inspection of crystallization", "setting": "[2]; 1.6 μM", "result": 0}, {"measurement": "Visual inspection of crystallization", "setting": "[2]; 3.1 μM", "result": 0}, {"measurement": "Visual inspection of crystallization", "setting": "[2]; 6.3 μM", "result": 0}, {"measurement": "Visual inspection of crystallization", "setting": "[2]; 12.5 μM", "result": 0}, {"measurement": "Visual inspection of crystallization", "setting": "[2]; 25.0 μM", "result": 1}, {"measurement": "Visual inspection of crystallization", "setting": "[2]; 50.0 μM", "result": 1}, {"measurement": "Toxicity (% positive for DAPI takeup @ 50 μM)", "setting": "[3]; Table 3", "result": 5.8, "unit": "%"}, {"measurement": "Toxicity (% positive for DAPI take-up at 50 μM)*", "setting": "[3]; Table 3 Supplement A", "result": 5.76, "unit": "%"}, {"measurement": "Inspection of round cells", "setting": "[4]; 1.6 μM", "result": 0}, {"measurement": "Inspection of round cells", "setting": "[4]; 3.1 μM", "result": 0}, {"measurement": "Inspection of round cells", "setting": "[4]; 6.3 μM", "result": 0}, {"measurement": "Inspection of round cells", "setting": "[4]; 12.5 μM", "result": 0}, {"measurement": "Inspection of round cells", "setting": "[4]; 25.0 μM", "result": 1}, {"measurement": "Inspection of round cells", "setting": "[4]; 50.0 μM", "result": 1}]}
{"smiles": "c1ncc(CNc2ncnc3[nH]cnc23)cn1", "note": "[Compound 67]", "values": [{"measurement": "EC50", "setting": "[1]; [5]", "result": 4.4, "unit": "µM"}, {"measurement": "EC50", "setting": "[1]; [6]", "result": 4.42, "unit": "µM"}, {"measurement": "Visual inspection of crystallization", "setting": "[2]; 1.6 μM", "result": 0}, {"measurement": "Visual inspection of crystallization", "setting": "[2]; 3.1 μM", "result": 0}, {"measurement": "Visual inspection of crystallization", "setting": "[2]; 6.3 μM", "result": 0}, {"measurement": "Visual inspection of crystallization", "setting": "[2]; 12.5 μM", "result": 0}, {"measurement": "Visual inspection of crystallization", "setting": "[2]; 25.0 μM", "result": 0}, {"measurement": "Visual inspection of crystallization", "setting": "[2]; 50.0 μM", "result": 0}, {"measurement": "Toxicity (% positive for DAPI take-up at 50 μM)*", "setting": "[3]; human", "result": 5.33, "unit": "%"}, {"measurement": "Toxicity (% positive for DAPI takeup @ 50 μM)", "setting": "[3]; human", "result": 5.3, "unit": "%"}, {"measurement": "Inspection of round cells", "setting": "[4]; 1.6 μM", "result": 0}, {"measurement": "Inspection of round cells", "setting": "[4]; 3.1 μM", "result": 0}, {"measurement": "Inspection of round cells", "setting": "[4]; 6.3 μM", "result": 0}, {"measurement": "Inspection of round cells", "setting": "[4]; 12.5 μM", "result": 0}, {"measurement": "Inspection of round cells", "setting": "[4]; 25.0 μM", "result": 0}, {"measurement": "Inspection of round cells", "setting": "[4]; 50.0 μM", "result": 0}]}
{"smiles": "CCCCNc1ncnc2[nH]c(C(F)(F)F)c(C)c12", "note": "[Compound 68]", "values": [{"measurement": "EC50", "setting": "[1]; [5]", "result": "> 50", "unit": "µM"}, {"measurement": "EC50", "setting": "[1]; [6]", "result": "> 25", "unit": "µM"}, {"measurement": "Visual inspection of crystallization", "setting": "[2]; 1.6 μM", "result": 0}, {"measurement": "Visual inspection of crystallization", "setting": "[2]; 3.1 μM", "result": 0}, {"measurement": "Visual inspection of crystallization", "setting": "[2]; 6.3 μM", "result": 0}, {"measurement": "Visual inspection of crystallization", "setting": "[2]; 12.5 μM", "result": 0}, {"measurement": "Visual inspection of crystallization", "setting": "[2]; 25.0 μM", "result": 0}, {"measurement": "Visual inspection of crystallization", "setting": "[2]; 50.0 μM", "result": 0}, {"measurement": "Toxicity (% positive for DAPI takeup @ 50 μM)", "setting": "[3]; Table 3", "result": 11.9, "unit": "%"}, {"measurement": "Toxicity (% positive for DAPI take-up at 50 μM)*", "setting": "[3]; Table 3 Supplement A", "result": 11.94, "unit": "%"}, {"measurement": "Inspection of round cells", "setting": "[4]; 1.6 μM", "result": 0}, {"measurement": "Inspection of round cells", "setting": "[4]; 3.1 μM", "result": 0}, {"measurement": "Inspection of round cells", "setting": "[4]; 6.3 μM", "result": 0}, {"measurement": "Inspection of round cells", "setting": "[4]; 12.5 μM", "result": 0}, {"measurement": "Inspection of round cells", "setting": "[4]; 25.0 μM", "result": 0}, {"measurement": "Inspection of round cells", "setting": "[4]; 50.0 μM", "result": 0}]}
{"smiles": "CCCCNc1ncnc2c1cc(C(F)(F)F)n2C(C)=O", "note": "[Compound 69]", "values": [{"measurement": "EC50", "setting": "[1]; [5]", "result": "> 50", "unit": "µM"}, {"measurement": "Visual inspection of crystallization", "setting": "[2]; 1.6 μM", "result": 0}, {"measurement": "Visual inspection of crystallization", "setting": "[2]; 3.1 μM", "result": 0}, {"measurement": "Visual inspection of crystallization", "setting": "[2]; 6.3 μM", "result": 0}, {"measurement": "Visual inspection of crystallization", "setting": "[2]; 12.5 μM", "result": 0}, {"measurement": "Visual inspection of crystallization", "setting": "[2]; 25.0 μM", "result": 0}, {"measurement": "Visual inspection of crystallization", "setting": "[2]; 50.0 μM", "result": 0}, {"measurement": "Toxicity (% positive for DAPI takeup @ 50 μM)", "setting": "[3]; Table 3", "result": 36.6, "unit": "%"}, {"measurement": "Inspection of round cells", "setting": "[4]; 1.6 μM", "result": 0}, {"measurement": "Inspection of round cells", "setting": "[4]; 3.1 μM", "result": 0}, {"measurement": "Inspection of round cells", "setting": "[4]; 6.3 μM", "result": 0}, {"measurement": "Inspection of round cells", "setting": "[4]; 12.5 μM", "result": 0}, {"measurement": "Inspection of round cells", "setting": "[4]; 25.0 μM", "result": 0}, {"measurement": "Inspection of round cells", "setting": "[4]; 50.0 μM", "result": 0}]}
{"smiles": "C[C@@H](Nc1ncnc2[nH]c(C(F)(F)F)cc12)c1cncnc1", "note": "[Compound 70]", "values": [{"measurement": "EC50", "setting": "[1]; [5]", "result": 21.6, "unit": "µM"}, {"measurement": "EC50", "setting": "[1]; [6]", "result": 21.6, "unit": "µM"}, {"measurement": "Visual inspection of crystallization", "setting": "[2]; 1.6 μM", "result": 0}, {"measurement": "Visual inspection of crystallization", "setting": "[2]; 3.1 μM", "result": 0}, {"measurement": "Visual inspection of crystallization", "setting": "[2]; 6.3 μM", "result": 0}, {"measurement": "Visual inspection of crystallization", "setting": "[2]; 12.5 μM", "result": 0}, {"measurement": "Visual inspection of crystallization", "setting": "[2]; 25.0 μM", "result": 0}, {"measurement": "Visual inspection of crystallization", "setting": "[2]; 50.0 μM", "result": 0}, {"measurement": "Toxicity (% positive for DAPI take-up at 50 μM)*", "setting": "[3]; human", "result": 22.95, "unit": "%"}, {"measurement": "Toxicity (% positive for DAPI takeup @ 50 μM)", "setting": "[3]; human", "result": 22.9, "unit": "%"}, {"measurement": "Inspection of round cells", "setting": "[4]; 1.6 μM", "result": 0}, {"measurement": "Inspection of round cells", "setting": "[4]; 3.1 μM", "result": 0}, {"measurement": "Inspection of round cells", "setting": "[4]; 6.3 μM", "result": 0}, {"measurement": "Inspection of round cells", "setting": "[4]; 12.5 μM", "result": 0}, {"measurement": "Inspection of round cells", "setting": "[4]; 25.0 μM", "result": 0}, {"measurement": "Inspection of round cells", "setting": "[4]; 50.0 μM", "result": 0}]}
